The assay has as its system E. coli (ATCC 25922). The assay is described as follows: Lower effective concentration of ethyl lactate, modification of AOAC Method 956.17. Particulars: 15% solution of ethyl lactate, exposure 10 minutes. It is filed as cell-based. How it is done: Using a modification of AOAC Method 956.17, the lower effective concentration for ethyl lactate was tested against E. coli (ATCC 25922) at three reaction times at varying concentrations of ethyl lactate.

Regarding `CCOC(=O)C(C)O` (stereo not shown) [ethyl lactate], the Bacterial growth result was “eliminated bacterial growth”.
